The structures appear in SMILES notation. Counter-ions that a name gives are not always drawn.

T1 sequence (P01116 1-188 isoform P01116-2 G12D): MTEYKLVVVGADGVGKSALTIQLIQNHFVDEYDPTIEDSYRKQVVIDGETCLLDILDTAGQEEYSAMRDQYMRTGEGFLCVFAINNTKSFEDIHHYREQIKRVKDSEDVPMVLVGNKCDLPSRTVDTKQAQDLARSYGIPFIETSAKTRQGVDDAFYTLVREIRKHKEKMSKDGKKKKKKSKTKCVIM

The assay has as its target T1, KRAS-G12D and SOS1 (Homo sapiens, UniProt P01116, G12D).
T1 construct: purchased
Nature of the assay: Inhibition of KRAS-G12D/SOS1 binding (Cisbio binding kit, 665/615 ratio), Effect Embodiment A. The settings on record: read-out: GTP-KRAS-G12D:SOS1 IC50. In a few lines: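 Duplicate wells received an eleven-point, threefold compound titration whose top point was the stock solution; final DMSO 1%.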
The IC50 is the concentration that gives 50% inhibition. In the case of `N=[S+]1([O-])CC2CCC(C1)N2CCCOc1nc(N2CC3CCC(C2)N3)c2cc(Cl)c(-c3cc(O)cc4ccccc34)c(F)c2n1` (single isomer, unassigned) [Compound 213b, (1R,3R or 3S,5S)-8-(3-((4-((1R,5S)-3,8-diazabicyclo[3.2.1]octan-3-yl)-6-chloro-8-fluoro-7-(3-hydroxynaphthalen-1-yl)quinazolin-2-yl)oxy)propyl)-3-imino-3λ^6-thia-8-azabicyclo[3.2.1]octane 3-oxide formate], the IC50 is 0.673 µM. The value for `CN(C)C1CN(c2nc(N=S3(=O)CCC(N)CC3)c3cc(Cl)c(-c4cc(O)cc5ccccc45)c(F)c3n2)C1` (single isomer, unassigned) [Compound 72a, (4R or S)-4-amino-1-(((R or S)-6-chloro-2-(3-(dimethylamino)azetidin-1-yl)-8-fluoro-7-(3-hydroxynaphthalen-1-yl)quinazolin-4-yl)imino)hexahydro-1-thiopyran 1-oxide] was above 200 µM; that for `Oc1cc(-c2c(Cl)cc3c(N4CC5CCC(C4)N5)nc(OCCCN4CCCCC4)nc3c2F)c2ccccc2c1` (single isomer, unassigned) [Compound 66b, 4-((R or S)-4-((1R,5S)-3,8-diazabicyclo[3.2.1]octan-3-yl)-6-chloro-8-fluoro-2-(3-(piperidin-1-yl)propoxy)quinazolin-7-yl)naphthalen-2-ol] was 18 µM; that for `CN(C)CCCCc1nc(N2CC3CCC(C2)N3)c2cc(Cl)c(-c3cc(O)cc4ccccc34)c(F)c2n1` (single isomer, unassigned) [Compound 154a, 4-((S or R)-4-((1R,5S)-3,8-diazabicyclo[3.2.1]octan-3-yl)-6-chloro-2-(4-(dimethylamino)butyl)-8-fluoroquinazolin-7-yl)naphthalen-2-ol dihydrochloride] was 0.204 µM. On to `Oc1cc(-c2c(Cl)cc3c(N4CC5CCC(C4)N5)nc(OCC(F)CN4C5CCC4COC5)nc3c2F)c2ccccc2c1` (single isomer, unassigned) [Compound 179a, ((4R or 4S)-4-(2-((2R or 2S)-3-(3-oxa-8-azabicyclo[3.2.1]octan-8-yl)-2-fluoropropoxy)-4-((1R,5S)-3,8-diazabicyclo[3.2.1]octan-3-yl)-6-chloro-8-fluoroquinazolin-7-yl)naphthalen-2-ol diformate], for which the IC50 was 0.276 µM. Under `Oc1cc(-c2c(Cl)cc3c(N4CC5CCC(C4)N5)nc(OCCCN4CCCC4)nc3c2F)c2ccccc2c1` (single isomer, unassigned) [Compound 63b, 4-((R or S)-4-((1R,5S)-3,8-diazabicyclo[3.2.1]octan-3-yl)-6-chloro-8-fluoro-2-(3-(pyrrolidin-1-yl)propoxy)quinazolin-7-yl)naphthalen-2-ol] stands 12.9 µM. The value for `CN1C[C@H]2C[C@H]2[C@H]1COc1nc(N2CC3CCC(C2)N3)c2cnc(-c3cc(O)cc4ccccc34)c(F)c2n1` [Compound 141, 4-(4-((1R,5S)-3,8-diazabicyclo[3.2.1]octan-3-yl)-8-fluoro-2-((1R,2S,5R)-3-methyl-3-azabicyclo[3.1.0]hexan-2-yl)methoxy)pyridin[4,3-d]pyrimidin-7-yl)naphthalen-2-ol dihydrochloride] was 0.0876 µM; that for `CCc1cccc2cc(O)cc(-c3c(F)cc4c(N5CC6CCC(C5)N6)nc(OCCCN5CCOC[C@H]5C)nc4c3F)c12` (single isomer, unassigned) [Compound 282b, (R or S)-4-(4-((1R,5S)-3,8-diazacyclo[3.2.1]octan-3-yl)-6,8-difluoro-2-(3-((R)-3-methylmorpholinyl)propoxy)quinazolin-7-yl)-5-ethylnaphthalen-2-ol dihydrochloride] was 5.07 µM. The value for `CN1CCC[C@H]1COc1nc(N2CC3CCC(C2)N3)c2cc(Cl)c(-c3cc(O)c(F)c4ccccc34)c(F)c2n1` (single isomer, unassigned) [Compound 89b, (R or S)-4-(4-((1R,5S)-3,8-diazabicyclo[3.2.1]octan-3-yl)-6-chloro-8-fluoro-2-(S)-1-methylpyrrolidin-2-yl)methoxy)quinazolin-7-yl)-1-fluoronaphthalen-2-ol hydrochloride] was 5.34 µM.

For `CN(C)CCCOc1nc2c(c(N3CCNCC3)n1)CCN(c1cc(O)cc3ccccc13)C2` [Compound 73, 4-(2-(3-(Dimethylamino)propoxy)-4-(piperazin-1-yl)-5,8-dihydropyrido[3,4-d]pyrimidin-7(6H)-yl)naphthalen-2-ol], the IC50 was found to be 15.7 µM. The value for `CN(CCN)c1nc(N2CC(N(C)C)C2)nc2c(F)c(-c3cc(O)cc4ccccc34)c(Cl)cc12` (single isomer, unassigned) [Compound 15b, (S or R)-4-(4((2-aminoethyl) (methyl)-amino)-6-chloro-2-(3-(dimethylamino)azetidin-1-yl)-8-fluoroquinazolin-7-yl)naphthalen-2-ol] was 52.7 µM; that for `CC(=O)NCCN(C)c1nc(N2CC(N(C)C)C2)nc2c(F)c(-c3cc(O)cc4ccccc34)c(Cl)cc12` (single isomer, unassigned) [Compound 84, (S or R)—N-(2-((6-chloro-2-(3-(dimethylamino)azetidin-1-yl)-8-fluoro-7-(3-hydroxynaphthalen-1-yl)quinazolin-4-yl)(methyl)amino)ethyl)acetamide] was 3.05 µM. The value for `Oc1cc(-c2c(Cl)cc3c(N4CC5CCC(C4)N5)nc(OCC45CCCN4CCC5)nc3c2F)c2ccccc2c1` (single isomer, unassigned) [Compound 58b, 4-((R or S)-4-((1R,5S)-3,8-diazabicyclo[3.2.1]octan-3-yl)-6-chloro-8-fluoro-2-((tetrahydro-1H-pyrrolin-7a(5H)-yl)methoxy)quinazolin-7-yl)naphthalen-2-ol] was 15.1 µM. The value for `C[C@@H](COc1nc(N2CC3CCC(C2)N3)c2cc(Cl)c(-c3cc(O)cc4ccccc34)c(F)c2n1)CN1CC(C)(C)OC(C)(C)C1` (single isomer, unassigned) [Compound 217, 4-((S or R)-4-((1R,5S)-3,8-diazabicyclo[3.2.1]octan-3-yl)-6-chloro-8-fluoro-2-((R)-2-methyl-3-(2,2,6,6-tetramethylmorpholinyl)propoxy)quinazolin-7-yl)naphthalen-2-ol formate] was 0.191 µM; that for `CN(C)C1CN(c2nc(N3C[C@H]4CC[C@@H](C3)[C@@H]4N)c3cc(Cl)c(-c4cc(O)cc5ccccc45)c(F)c3n2)C1` (single isomer, unassigned) [Compound 30, (S or R)-4-(4-((1R,5S,8S)-8-amino-3-azabicyclo[3.2.1]octan-3-yl)-6-chloro-2-(3-(dimethylamino)azetidin-1-yl)-8-fluoroquinazolin-7-yl)naphthalen-2-ol] was 1.23 µM; that for `CN1CCC[C@H]1COc1nc(N2C3CCC2C2CCC3N2)c2cc(Cl)c(-c3cc(O)cc4ccccc34)c(F)c2n1` (single isomer, unassigned) [Compound 152a, 4-((S or R)-6-chloro-8-fluoro-2-((S)-1-methylpyrrolidin-2-yl)methoxy)-4-((1R,2R,5S,6S)-9,10-diazatricyclo[4.2.1.1^2,5]decan-9-yl)quinazolin-7-yl)naphthalen-2-ol dihydrochloride] was 1.05 µM. Regarding `CCc1cccc2cc(O)cc(-c3c(F)cc4c(N5CC6CCC(C5)N6)nc(OC[C@H](C)CN5C6CCC5COC6)nc4c3F)c12` (single isomer, unassigned) [Compound 284b, (4R or 4S)-4-(2-((2R)-3-(3-oxa-8-azabicyclo[3.2.1]octan-8-yl)-2-methylpropoxy)-4-((1R,5S)-3,8-diazabicyclo[3.2.1]octan-3-yl)-6,8-difluoroquinazolin-7-yl)-5-ethylnaphthalen-2-o1 dihydrochloride], the 50% inhibitory concentration (IC50) was 2.01 µM. The value for `CCc1c(F)ccc2cc(O)cc(-c3c(Cl)cc4c(N5CC6CCC(C5)N6)nc(OC[C@H](C)CN5C6CCC5COC6)nc4c3F)c12` (single isomer, unassigned) [Compound 233a, 4-((7S or 7R)-2-((2R)-3-(3-oxa-8-azabicyclo[3.2.1]octan-8-yl)-2-methylpropoxy)-4-((1R,5S)-3,8-diazabicyclo[3.2.1]octan-3-yl)-6-chloro-8-fluoroquinazolin-7-yl)-5-ethyl-6-fluoronaphthalen-2-ol formate] was 3.28 µM; that for `CN(C)CCCn1c(=O)nc(N2CC3CCC(C2)N3)c2cc(Cl)c(-c3cc(O)cc4ccccc34)c(F)c21` (single isomer, unassigned) [Compound 74a, 4-((1R,5S)-3,8-diazabicyclo[3.2.1]octan-3-yl)-6-chloro-1-(3-(dimethylamino)propyl)-8-fluoro-7-((S or R)-3-hydroxynaphthalen-1-yl)quinazolin-2(1H)-one] was 100 µM. Under `CN(C)C1CN(c2nc(N3CC4(CCNCC4)C3)c3cc(Cl)c(-c4cc(O)cc5ccccc45)c(F)c3n2)C1` (single isomer, unassigned) [Compound 10b, (S or R)-4-(6-chloro-2-(3-(dimethylamino)azetidin-1-yl)-8-fluoro-4-(2,7-diazaspiro[3.5 5]nonan-2-yl)quinazolin-7-yl)naphthalen-2-ol] stands 65.1 µM.

Regarding `CN(C)C1CN(c2nc(NC3CC4CCCC(C3)N4)c3cc(Cl)c(-c4cc(O)cc5ccccc45)c(F)c3n2)C1` (single isomer, unassigned) [Compound 31, 4-((S or R)-4-(((1R,3R,5S)-9-azabicyclo[3.3.1]nonan-3-yl)amino)-6-chloro-2-(3-(dimethylamino)azetidin-1-yl)-8-fluoroquinazolin-7-yl)naphthalen-2-ol], the IC50 is around 69.7 µM. Consider `CN(C)C12CC(c3nc(N4CC5CCC(C4)N5)c4cc(Cl)c(-c5cc(O)cc6ccccc56)c(F)c4n3)(C1)C2` (single isomer, unassigned) [Compound 162a, 4-((S or R)-4-((1R,5S)-3,8-diazabicyclo[3.2.1]octan-3-yl)-6-chloro-2-(3-(dimethylamino)bicyclo[1.1.1]pentan-1-yl)-8-fluoroquinazolin-7-yl)naphthalen-2-ol dihydrochloride], for which the IC50 stood at 0.678 µM.

(Values after patent publication US20230365563A1, “QUINAZOLINE COMPOUND AND APPLICATION THEREOF” (SHANGHAI PHARMACEUTICALS HOLDING CO., LTD., priority 2020, published 2023).)
